Test [1] deals with T1, Myeloperoxidase (Homo sapiens, UniProt P05164).
T1 sequence (P05164 whole entry): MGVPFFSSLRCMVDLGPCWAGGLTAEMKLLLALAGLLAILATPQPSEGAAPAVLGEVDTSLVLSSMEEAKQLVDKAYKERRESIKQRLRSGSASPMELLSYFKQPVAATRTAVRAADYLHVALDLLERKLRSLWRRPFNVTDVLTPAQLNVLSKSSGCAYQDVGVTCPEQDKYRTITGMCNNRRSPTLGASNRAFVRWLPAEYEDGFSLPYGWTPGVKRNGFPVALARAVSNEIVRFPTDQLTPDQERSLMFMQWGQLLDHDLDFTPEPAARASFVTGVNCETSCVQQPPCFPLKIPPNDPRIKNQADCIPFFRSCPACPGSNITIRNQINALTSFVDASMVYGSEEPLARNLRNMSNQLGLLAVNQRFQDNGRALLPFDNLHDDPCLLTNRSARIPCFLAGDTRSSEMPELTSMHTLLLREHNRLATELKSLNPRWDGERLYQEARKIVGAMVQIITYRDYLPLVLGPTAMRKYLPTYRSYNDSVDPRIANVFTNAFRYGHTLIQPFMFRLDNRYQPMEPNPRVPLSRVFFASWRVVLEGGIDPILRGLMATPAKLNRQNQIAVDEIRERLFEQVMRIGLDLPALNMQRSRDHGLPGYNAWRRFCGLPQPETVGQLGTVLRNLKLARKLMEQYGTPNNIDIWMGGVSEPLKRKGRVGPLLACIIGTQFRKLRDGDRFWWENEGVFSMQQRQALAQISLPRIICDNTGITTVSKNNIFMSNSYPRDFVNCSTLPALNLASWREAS
Kind of test: MPO Chlorination (APF) Assay : MPO chlorination activity was measured in 100 mM KPi (pH 7.4) by utilizing the non-fluorescent reagent Aminophenyl fluorescein (APF, Invitrogen catalog #A36003). APF is cleaved by (—OCl) to yield the fluorescent compound fluorescein. […] Enzyme, inhibitor, and chloride were preincubated for ten minutes at rt.After the ten minute preincubation, 25 μL of an APF mixture containing […], 120 mM NaCl and 10 μM H2O2 was added to the plate using the internal dispensing system of a Hammatsu FDSS 6000. […] IC50 values for inhibitors were calculated by taking the slope of the linear portion of the kinetic measurement (20 seconds to ˜80-120 secs).IC50 values were calculated by determining the slope of the linear portion of the kinetic trace (180-540 secs), and using that calculated slope to determine % inhibition occurring at each concentration of inhibitor using the following equation:Y = A + B - A 1 + ( C / x ) Dwhere A=minimal Y value (activity level of inhibited sample), B=maximal Y value (activity level of uninhibited sample), C=Log IC50, D=Hill Slope, x=concentration of inhibitor.

Test [2] concerns the target T1, Myeloperoxidase. Briefly: MPO Peroxidation (Amplex Red) Assay: MPO peroxidation activity was measured in 100 mM KPi (pH 7.4) by utilizing the non-fluorescent reagent Amplex Red (Invitrogen catalog #A12222) which can be oxidized to the highly fluorescent resorufin. Amplex Red is oxidized by the peroxidase action of MPO to resorufin. […] Enzyme and compound were preincubated for ten minutes at rt.After the ten minute preincubation, 25 μL of an Amplex Red mixture containing 200 μM Amplex Red and 10 mM H2O2 was added to the plate.

pIC50: −log10 of the molar value. Some results are limits rather than exact numbers.

Turning to `Cn1nc(C(F)(F)F)c(CSc2cc(N)nc3[nH]nnc23)c1F`, the pIC50 in test [1] is > 7.22.

With `N#Cc1c(F)cccc1CSc1cc(N)nc2[nH]nnc12`, the pIC50 in test [1] was > 7.22.

With `N#Cc1ccc(Cl)c(CSc2cc(N)nc3[nH]nnc23)c1`, in test [1], the pIC50 is > 7.22.

With `N#Cc1cccc(Br)c1CSc1cc(N)nc2[nH]nnc12`, the pIC50 in test [1] was > 7.22.

With `CCc1nn(C)c(Cl)c1CSc1cc(N)nc2[nH]nnc12`, the pIC50 in test [1] was > 7.22.

Turning to `Cn1cc(CSc2cc(N)nc3[nH]nnc23)c(C(F)(F)F)n1`, the pIC50 in test [1] was > 7.22.

As to `Cc1nn(C)c(C)c1CSc1cc(N)nc2[nH]nnc12`, the figures for the pIC50 in test [2] and in test [1] were 7.52 and 7.10, respectively.

With `Cn1ncc(CSc2cc(N)nc3[nH]nnc23)c1C(F)(F)F`, in test [1], the pIC50 was > 7.22.

Values taken from ChEMBL document CHEMBL5728406, “Thioether triazolopyridine and triazolopyrimidine inhibitors of myeloperoxidase” (2021).
